According to patent US20020137929A1, “1 - (3-heterocyclylphenyl) isothiourea, -isourea, -guanidine and -amidine herbicidal agents” (Intellectual Property Department, BASF Aktiengesellschaft, priority 1998, published 2002):

Assays:
ABUTH (Velvetleaf) = assay: Postemergence herbicidal evaluation; format: in vivo, Abutilon theophrasti; details: postemergence
Summary of the method: (§1)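 Compound is applied as a foliar spray to seedlings about two weeks old, formulated in equal parts acetone and water with 0.5% TWEEN 20 and delivered at 40 psi to give about 0.0156–0.500 kg per hectare. Injury is rated visually 0–9 after four to five weeks.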

SETVI (Foxtail, Green) [1] = assay: Preemergence herbicidal evaluation; format: in vivo, Setaria viridis; details: rated 4-5 weeks after treatment
Summary of the method: (§2)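 Rating at 4–5 wk post-spray on a 0–9 visual scale vs control. Application: aqueous acetone, ~0.0156–0.500 kg/ha, to soil surface after seeding, preemergence.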

GALAP (Galium) = assay: Preemergence herbicidal evaluation; format: in vivo, Galium aparine; details: rated 4-5 weeks after treatment
Summary of the method: as §2

[2] = tested on: TRZAWR (Wheat, Winter, cv Riband); assay: Postemergence herbicidal evaluation; format: in vivo, Triticum aestivum; details: postemergence
Summary of the method: as §1

CYPIR (Rice Flatsedge) = assay: Preemergence weed control under flooded paddy conditions; format: in vivo, Cyperus iria; details: rated 3-4 weeks after treatment
Summary of the method: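 Seeds or propagules sown in silt loam kept flooded 1.5-3 cm; compounds in 50/50 acetone/water pipetted into flood water at about 0.0313 to 0.500 kg/ha. Greenhouse; visual 0-9 rating versus untreated control 3-4 weeks after treatment.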

[3] = tested on: GLXMAW (Soybean, Williams); assay: Postemergence herbicidal evaluation; format: in vivo, Glycine max, (L.) Merr. cv Williams; details: postemergence
Summary of the method: as §1

[4] = tested on: CHEAL (Lambsquarters, Common); assay: Postemergence herbicidal evaluation; format: in vivo, Chenopodium album; details: postemergence
Summary of the method: as §1

ORYSAT (Rice, Tebonnet) = assay: Postemergence herbicidal evaluation; format: in vivo, Oryza sativa, (L.) Tebonnet; details: postemergence
Summary of the method: as §1

SETVI (Foxtail, Green) [5] = assay: Postemergence herbicidal evaluation; format: in vivo, Setaria viridis; details: postemergence
Summary of the method: as §1

ZEAMX (Corn, Field) = assay: Postemergence herbicidal evaluation; format: in vivo, Zea mays; details: postemergence
Summary of the method: as §1

AMBEL (Ragweed, Common) = assay: Preemergence herbicidal evaluation; format: in vivo, Ambrosia artemisifolia; details: rated 4-5 weeks after treatment
Summary of the method: as §2

[6] = rate 0.0625 kg/ha, rating scale 0-9
[7] = rate 0.1250 kg/ha, rating scale 0-9
[8] = rate 0.2500 kg/ha, rating scale 0-9

For COc1cc(CN2C(=O)CSC2=Nc2cc(-n3c(=O)cc(C(F)(F)F)n(C)c3=O)c(F)cc2Cl)cc(OC)c1OC [Compound 140, 3-{4-Chloro-2-fluoro-5-{[3-(3,4,5-trimethoxybenzyl)-4-oxo-2-thiazolidinylidene]amino}phenyl}-1-methyl-6-(trifluoromethyl)-2,4(1H,3H)-pyrimidinedione], which “Herbicidal rating ABUTH” value (ABUTH (Velvetleaf); rate 0.0156 kg/ha) is on record?
Its value is 4.0.

What about the “Herbicidal rating ABUTH” value (ABUTH (Velvetleaf); rate 0.0313 kg/ha) of the same compound?
The value was 4.0.

And the “Herbicidal rating ABUTH” value (ABUTH (Velvetleaf); rate 0.0625 kg/ha)?
The value was 9.0.

And the “Preemergence herbicidal rating SETVI” value (SETVI (Foxtail, Green) [1]; [6])?
Its value is 0.0.

What about the “Preemergence herbicidal rating SETVI” value (SETVI (Foxtail, Green) [1]; [7]) of the same compound?
Its value is 0.0.

What about the “Preemergence herbicidal rating SETVI” value (SETVI (Foxtail, Green) [1]; [8]) of the same compound?
The value was 0.0.

And the “Preemergence herbicidal rating GALAP” value (GALAP (Galium); [6])?
The value was 0.0.

What about the “Preemergence herbicidal rating GALAP” value (GALAP (Galium); [7]) of the same compound?
The value was 0.0.

What about the “Preemergence herbicidal rating GALAP” value (GALAP (Galium); [8]) of the same compound?
The value was 0.0.

And the “Herbicidal rating TRZAWR” value ([2]; rate 0.0156 kg/ha)?
Its value is 2.5.

And the “Herbicidal rating TRZAWR” value ([2]; rate 0.0313 kg/ha)?
The value was 3.5.

And the “Herbicidal rating TRZAWR” value ([2]; rate 0.0625 kg/ha)?
Its value is 4.0.

And the “herbicidal effect rating, CYPIR” value (CYPIR (Rice Flatsedge); 0.0313 kg/ha)?
Its value is 4.0.

And the “herbicidal effect rating, CYPIR” value (CYPIR (Rice Flatsedge); 0.0625 kg/ha)?
The value was 7.0.

And the “herbicidal effect rating, CYPIR” value (CYPIR (Rice Flatsedge); 0.1250 kg/ha)?
Its value is 9.0.

And the “herbicidal effect rating, CYPIR” value (CYPIR (Rice Flatsedge); 0.2500 kg/ha)?
The value was 7.0.

And the “Herbicidal rating GLXMAW” value ([3]; rate 0.0156 kg/ha)?
Its value is 3.5.

And the “Herbicidal rating GLXMAW” value ([3]; rate 0.0313 kg/ha)?
Its value is 4.5.

What about the “Herbicidal rating GLXMAW” value ([3]; rate 0.0625 kg/ha) of the same compound?
The value was 5.5.

What about the “Herbicidal rating CHEAL” value ([4]; rate 0.0156 kg/ha) of the same compound?
The value was 3.0.

And the “Herbicidal rating CHEAL” value ([4]; rate 0.0625 kg/ha)?
Its value is 3.0.

What about the “Herbicidal rating ORYSAT” value (ORYSAT (Rice, Tebonnet); rate 0.0156 kg/ha) of the same compound?
The value was 0.5.

And the “Herbicidal rating ORYSAT” value (ORYSAT (Rice, Tebonnet); rate 0.0313 kg/ha)?
The value was 0.5.

What about the “Herbicidal rating ORYSAT” value (ORYSAT (Rice, Tebonnet); rate 0.0625 kg/ha) of the same compound?
Its value is 1.5.

What about the “Herbicidal rating SETVI” value (SETVI (Foxtail, Green) [5]; rate 0.0156 kg/ha) of the same compound?
The value was 0.0.

What about the “Herbicidal rating SETVI” value (SETVI (Foxtail, Green) [5]; rate 0.0313 kg/ha) of the same compound?
The value was 0.0.

What about the “Herbicidal rating SETVI” value (SETVI (Foxtail, Green) [5]; rate 0.0625 kg/ha) of the same compound?
Its value is 0.0.

What about the “Herbicidal rating ZEAMX” value (ZEAMX (Corn, Field); rate 0.0156 kg/ha) of the same compound?
Its value is 3.5.

And the “Herbicidal rating ZEAMX” value (ZEAMX (Corn, Field); rate 0.0313 kg/ha)?
The value was 4.0.

And the “Herbicidal rating ZEAMX” value (ZEAMX (Corn, Field); rate 0.0625 kg/ha)?
Its value is 4.0.

And the “Preemergence herbicidal rating AMBEL” value (AMBEL (Ragweed, Common); [6])?
Its value is 0.0.

And the “Preemergence herbicidal rating AMBEL” value (AMBEL (Ragweed, Common); [7])?
Its value is 0.0.

And the “Preemergence herbicidal rating AMBEL” value (AMBEL (Ragweed, Common); [8])?
The value was 0.0.

Which “Herbicidal rating ABUTH” value (ABUTH (Velvetleaf); rate 0.0156 kg/ha) does the source give for CCOC(=O)CN1C(=O)C(OC)SC1=Nc1cc(-n2c(=O)cc(C(F)(F)F)n(C)c2=O)c(F)cc1Cl (centres unmarked) [Compound 160, Ethyl 2-{{2-chloro-5-[3,6-dihydro-3-methyl-2,6-dioxo-4-(trifluoromethyl)-1(2H)-pyrimidinyl]-4-fluorophenyl}imino}-5-methoxy-4-oxo-3-thiazolidineacetate] here?
The value was 9.0.

What about the “Herbicidal rating ABUTH” value (ABUTH (Velvetleaf); rate 0.0313 kg/ha) of the same compound?
The value was 9.0.

What about the “Herbicidal rating ABUTH” value (ABUTH (Velvetleaf); rate 0.0625 kg/ha) of the same compound?
Its value is 9.0.

And the “Herbicidal rating ABUTH” value (ABUTH (Velvetleaf); rate 0.1250 kg/ha)?
Its value is 9.0.

What about the “Preemergence herbicidal rating SETVI” value (SETVI (Foxtail, Green) [1]; 0.0156 kg/ha) of the same compound?
The value was 0.0.

And the “Preemergence herbicidal rating SETVI” value (SETVI (Foxtail, Green) [1]; 0.0313 kg/ha)?
Its value is 1.0.

What about the “Preemergence herbicidal rating SETVI” value (SETVI (Foxtail, Green) [1]; 0.0625 kg/ha) of the same compound?
Its value is 7.0.

And the “Preemergence herbicidal rating SETVI” value (SETVI (Foxtail, Green) [1]; 0.1250 kg/ha)?
The value was 7.0.

What about the “Preemergence herbicidal rating SETVI” value (SETVI (Foxtail, Green) [1]; 0.2500 kg/ha) of the same compound?
The value was 7.0.

And the “Preemergence herbicidal rating SETVI” value (SETVI (Foxtail, Green) [1]; 0.5000 kg/ha)?
Its value is 9.0.

And the “Preemergence herbicidal rating GALAP” value (GALAP (Galium); 0.0156 kg/ha)?
The value was 0.0.

What about the “Preemergence herbicidal rating GALAP” value (GALAP (Galium); 0.0313 kg/ha) of the same compound?
The value was 0.0.

And the “Preemergence herbicidal rating GALAP” value (GALAP (Galium); 0.0625 kg/ha)?
The value was 0.0.

What about the “Preemergence herbicidal rating GALAP” value (GALAP (Galium); 0.1250 kg/ha) of the same compound?
Its value is 0.0.

What about the “Preemergence herbicidal rating GALAP” value (GALAP (Galium); 0.2500 kg/ha) of the same compound?
The value was 7.0.

What about the “Preemergence herbicidal rating GALAP” value (GALAP (Galium); 0.5000 kg/ha) of the same compound?
The value was 7.0.

And the “Herbicidal rating TRZAWR” value ([2]; rate 0.0156 kg/ha)?
Its value is 3.0.

What about the “Herbicidal rating TRZAWR” value ([2]; rate 0.0313 kg/ha) of the same compound?
The value was 4.0.

What about the “Herbicidal rating TRZAWR” value ([2]; rate 0.0625 kg/ha) of the same compound?
Its value is 5.0.

What about the “Herbicidal rating TRZAWR” value ([2]; rate 0.1250 kg/ha) of the same compound?
Its value is 6.0.

What about the “herbicidal effect rating, CYPIR” value (CYPIR (Rice Flatsedge); 0.0313 kg/ha) of the same compound?
The value was 0.0.

And the “herbicidal effect rating, CYPIR” value (CYPIR (Rice Flatsedge); 0.0625 kg/ha)?
The value was 3.0.

What about the “herbicidal effect rating, CYPIR” value (CYPIR (Rice Flatsedge); 0.1250 kg/ha) of the same compound?
The value was 6.0.

And the “herbicidal effect rating, CYPIR” value (CYPIR (Rice Flatsedge); 0.2500 kg/ha)?
The value was 9.0.

And the “Herbicidal rating GLXMAW” value ([3]; rate 0.0156 kg/ha)?
Its value is 5.0.

What about the “Herbicidal rating GLXMAW” value ([3]; rate 0.0313 kg/ha) of the same compound?
Its value is 6.0.

What about the “Herbicidal rating GLXMAW” value ([3]; rate 0.0625 kg/ha) of the same compound?
Its value is 7.0.

And the “Herbicidal rating GLXMAW” value ([3]; rate 0.1250 kg/ha)?
The value was 7.0.

And the “Herbicidal rating CHEAL” value ([4]; rate 0.0156 kg/ha)?
Its value is 2.0.

What about the “Herbicidal rating CHEAL” value ([4]; rate 0.0313 kg/ha) of the same compound?
Its value is 6.0.

And the “Herbicidal rating CHEAL” value ([4]; rate 0.0625 kg/ha)?
The value was 9.0.

What about the “Herbicidal rating CHEAL” value ([4]; rate 0.1250 kg/ha) of the same compound?
The value was 9.0.

What about the “Herbicidal rating ORYSAT” value (ORYSAT (Rice, Tebonnet); rate 0.0156 kg/ha) of the same compound?
Its value is 2.0.

And the “Herbicidal rating ORYSAT” value (ORYSAT (Rice, Tebonnet); rate 0.0313 kg/ha)?
The value was 3.5.

And the “Herbicidal rating ORYSAT” value (ORYSAT (Rice, Tebonnet); rate 0.0625 kg/ha)?
The value was 4.5.

What about the “Herbicidal rating ORYSAT” value (ORYSAT (Rice, Tebonnet); rate 0.1250 kg/ha) of the same compound?
The value was 4.5.

And the “Herbicidal rating SETVI” value (SETVI (Foxtail, Green) [5]; rate 0.0156 kg/ha)?
The value was 0.0.

And the “Herbicidal rating SETVI” value (SETVI (Foxtail, Green) [5]; rate 0.0313 kg/ha)?
Its value is 6.0.

What about the “Herbicidal rating SETVI” value (SETVI (Foxtail, Green) [5]; rate 0.0625 kg/ha) of the same compound?
Its value is 9.0.

What about the “Herbicidal rating SETVI” value (SETVI (Foxtail, Green) [5]; rate 0.1250 kg/ha) of the same compound?
The value was 9.0.

And the “Herbicidal rating ZEAMX” value (ZEAMX (Corn, Field); rate 0.0156 kg/ha)?
Its value is 6.5.

And the “Herbicidal rating ZEAMX” value (ZEAMX (Corn, Field); rate 0.0313 kg/ha)?
Its value is 7.0.

What about the “Herbicidal rating ZEAMX” value (ZEAMX (Corn, Field); rate 0.0625 kg/ha) of the same compound?
The value was 7.0.

And the “Herbicidal rating ZEAMX” value (ZEAMX (Corn, Field); rate 0.1250 kg/ha)?
Its value is 7.5.

And the “Preemergence herbicidal rating AMBEL” value (AMBEL (Ragweed, Common); 0.0156 kg/ha)?
The value was 7.0.

What about the “Preemergence herbicidal rating AMBEL” value (AMBEL (Ragweed, Common); 0.0313 kg/ha) of the same compound?
Its value is 6.0.

And the “Preemergence herbicidal rating AMBEL” value (AMBEL (Ragweed, Common); 0.0625 kg/ha)?
The value was 9.0.

What about the “Preemergence herbicidal rating AMBEL” value (AMBEL (Ragweed, Common); 0.1250 kg/ha) of the same compound?
Its value is 9.0.

What about the “Preemergence herbicidal rating AMBEL” value (AMBEL (Ragweed, Common); 0.2500 kg/ha) of the same compound?
The value was 9.0.

What about the “Preemergence herbicidal rating AMBEL” value (AMBEL (Ragweed, Common); 0.5000 kg/ha) of the same compound?
The value was 9.0.
